# Source: patent US8188064B2, “Vitamin D analogs for obesity prevention and treatment” (Wisconsin Alumni Research Foundation, priority 2003, dated 2012)
# Entries after “also recorded” stand apart in the source; their conditions may differ. Like-named read-outs stand apart in the source and are kept apart here.
# Legend:
# SCD-1 mRNA = test: Inhibition of SCD-1 mRNA induction in 3T3-L1 cells (RT-PCR); type: cell-based, murine; details: for EC50: Mus musculus, 3T3-L1, 96 h, read-out: EC50 for inhibition of murine 3T3-L1 expression of SCD-1 mRNA; for inhibition of SCD-1 mRNA induction: result in words, MDI-treated 3T3-L1 cells
# Source text: Chomczynski, P. et al., Anal. […] NO: 4)).
# [1] = Bone calcium mobilization (serum calcium on low calcium diet); type: in vivo, rat; details: result in words, vitamin D deficient rat model, compared to 1α,25(OH)2D3
# Method in brief: (§1)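 Male weanling Sprague-Dawley rats, vitamin D-deficient, cycled through 0.47% and 0.02% Ca diets, dosed during the last 0.02% Ca week. Four ip doses ~24 h apart; serum calcium measured 24 h after last dose. First 10 cm of intestine taken for everted gut sac calcium transport.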
# [2] = target: T1, full-length recombinant rat vitamin D receptor (Rattus norvegicus, UniProt P13053); test: Vitamin D receptor binding (competition with 3H-1,25(OH)2D3); details: result in words, competition for tritiated hormone binding
# T1 construct: Full-length recombinant rat receptor was expressed in E. coli; histidine tag (C); made in house; host or cells: E. coli BL21(DE3) Codon Plus RIL
# T1 sequence (P13053 1-423): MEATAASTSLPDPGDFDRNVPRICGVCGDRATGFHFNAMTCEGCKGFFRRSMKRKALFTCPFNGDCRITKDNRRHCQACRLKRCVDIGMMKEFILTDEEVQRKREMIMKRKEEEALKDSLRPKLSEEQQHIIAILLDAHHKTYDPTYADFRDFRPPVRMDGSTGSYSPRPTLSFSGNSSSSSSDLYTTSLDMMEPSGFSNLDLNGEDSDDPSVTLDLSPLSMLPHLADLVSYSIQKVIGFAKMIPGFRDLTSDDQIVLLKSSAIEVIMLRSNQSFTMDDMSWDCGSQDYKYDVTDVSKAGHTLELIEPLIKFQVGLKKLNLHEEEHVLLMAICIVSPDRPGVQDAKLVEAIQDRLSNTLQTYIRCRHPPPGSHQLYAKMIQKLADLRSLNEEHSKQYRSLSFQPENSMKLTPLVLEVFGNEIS
# Method in brief: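 Purified His-tagged receptor from E. coli, diluted in TEDK50 (pH 7.4, 5 mM DTT, 150 mM KCl) with 0.1% Chaps, set so ≤20% of radioligand bound. Competition against 1 nM final 3H-1,25(OH)2D3, ethanol ≤10%, overnight on ice; bound ligand collected on hydroxylapatite, washed, counted by scintillation.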
# [3] = Intestinal calcium transport (everted gut sac); type: in vivo; details: result in words, vitamin D deficient rat model, compared to 1α,25(OH)2D3
# Method in brief: as §1
# PPARγ2 mRNA = PPARγ2 mRNA induction by MDI in 3T3-L1 cells (RT-PCR); type: cell-based, murine
# Method: RT-PCR was carried out as described above with 0.5 μM each primer, 2 mM MgCl2, and 1×SYBR Green master mix.
# C/EBPα mRNA = C/EBPα mRNA induction by MDI in 3T3-L1 cells (RT-PCR); type: cell-based, murine
# Method: Analysis of C/EBPα was determined by PCR using murine primers (upstream=CGA GTA GGG GGA GCA AAA A (SEQ ID NO: 7); downstream=GCA AAA AGC MG GGA TTA GGA G (SEQ ID NO: 8)). RT-PCR was carried out as described above with 0.5 μM each primer, 2 mM MgCl2, and 1×SYBR Green master mix. The murine C/EBPα primers have a 60° C. annealing temperature and a 12 second extension time.
# 3T3-L1 cells = test: Inhibition of 3T3-L1 differentiation into mature adipocytes (Oil-Red-O staining); type: cell-based, murine; details: for inhibition of differentiation of 3T3-L1 cells into mature adipocytes (Oil-Red-O staining): result in words, MDI-treated cells, staining at day 10
# [4] = Hypercalcemia / serum calcium analysis; type: in vivo, rat; details: normal vitamin D sufficient rats, very high oral doses
# [5] = tested on: Human promyelocytic leukemia (HL60) cells; test: HL-60 differentiation (nitro blue tetrazolium reduction); type: cell-based; details: concentration 1×10^−7 M
# Method in brief: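 Four-day drug treatment of cells grown in RPMI-1640/10% FBS at 37 °C, 5% CO2, ethanol ≦0.2%; then NBT reduction, percent of 200 cells with black-blue formazan.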
smiles,measurement,setting,value
C=C1[C@H](O)CC(=C/C=C2\CCC[C@]3(C)[C@@H]([C@@H](C)CCCC(C)(C)O)CC[C@@H]23)C[C@H]1O [2-MD],EC50,SCD-1 mRNA; SCD-1 mRNA at 4 days,~0.0029 nM
same,times more potent than the native hormone calcitriol,SCD-1 mRNA; inhibition of 3T3-L1 differentiation (FIG. 2 and FIG. 3),at least 70 times
same,bone calcium mobilization activity,[1],active
same,"binding to the vitamin D receptor, compared to 1α,25(OH)2D3",[2],as well as the native hormone
same,intestinal calcium transport activity,[3],active
same,PPARγ mRNA induction by MDI,PPARγ2 mRNA; compound present at 1×10^−10 M,prevented these mRNAs from being upregulated; also recorded: not induced
same,C/EBPα mRNA induction by MDI,C/EBPα mRNA; compound present at 1×10^−10 M,prevented these mRNAs from being upregulated; also recorded: not induced
same,inhibition of differentiation of 3T3-L1 cells into mature adipocytes (Oil-Red-O staining),3T3-L1 cells,highest activity; also recorded: so much greater; also recorded: inhibit
"C=C1/C(=C\C=C2/CCC[C@]3(C)[C@@H]([C@H](C)CCCC(C)(C)O)CC[C@@H]23)C[C@@H](O)C[C@@H]1O [1α,25(OH)2D3, 1α,25-dihydroxyvitamin D3, reference compound]",EC50,SCD-1 mRNA,0.2 nM
same,inhibition of SCD-1 mRNA induction,SCD-1 mRNA,inhibition
same,bone calcium mobilization activity,[1]; listed as calcitriol,quite potent; also recorded: active
same,intestinal calcium transport activity,[3]; listed as calcitriol,quite potent; also recorded: active
same,increase in serum calcium,[4],frank hypercalcemia and even death
same,PPARγ mRNA induction by MDI,PPARγ2 mRNA; compound present at 1×10^−8 M,not induced
same,C/EBPα mRNA induction by MDI,C/EBPα mRNA; compound present at 1×10^−8 M,not induced
same,cells induced to differentiate in the NBT assay,[5],~90%
same,inhibition of differentiation of 3T3-L1 cells into mature adipocytes (Oil-Red-O staining),3T3-L1 cells,inhibit; also recorded: inhibition
C=C1[C@H](O)CC(=C/C=C2\CCC[C@]3(C)[C@@H]([C@@H](C)CC)CC[C@@H]23)C[C@H]1O [2-MbisP],EC50,SCD-1 mRNA; SCD-1 mRNA at 4 days,~0.54 nM
same,"times less potent than the native hormone 1,25-(OH)2D3",SCD-1 mRNA; inhibition of SCD-1 mRNA induction,2 to 3 times
same,inhibition of SCD-1 mRNA induction,"SCD-1 mRNA; listed as (1α,20S)2MbisP",inhibition
same,inhibition of SCD-1 mRNA induction,SCD-1 mRNA; listed as (20S)2-MbisP,nearly as potent as the native hormone
same,inhibition of SCD1 mRNA induction,SCD-1 mRNA; tested at 1×10^−8.5 M,active
same,bone calcium mobilization activity,[1],"little, if any, activity"
same,"binding to the vitamin D receptor, compared to 1α,25(OH)2D3",[2]; listed as 1α-(20S)2-MbisP,nearly the same affinity
same,"binding to the vitamin D receptor, compared to 1α,25(OH)2D3",[2]; listed as (20S)2-MbisP,as or nearly effective as calcitriol
same,intestinal calcium transport activity,[3],"little, if any, activity"
same,increase in serum calcium,[4],without producing an increase in serum calcium
same,PPARγ mRNA induction by MDI,PPARγ2 mRNA; compound present at 1×10^−8 M,not induced
same,C/EBPα mRNA induction by MDI,C/EBPα mRNA; compound present at 1×10^−8 M,not induced
same,difference in potency from the native hormone in inhibiting differentiation,3T3-L1 cells; MDI-induced 3T3-L1 cells,< 0.5 log unit
same,inhibition of differentiation of 3T3-L1 cells into mature adipocytes (Oil-Red-O staining),3T3-L1 cells,inhibit; also recorded: effective
same,inhibition of differentiation of 3T3-L1 cells into mature adipocytes (Oil-Red-O staining),3T3-L1 cells; listed as 1α-(20S)2-MbisP,nearly equipotent
same,inhibition of differentiation of 3T3-L1 cells into mature adipocytes (Oil-Red-O staining),"3T3-L1 cells; listed as (1α,20S)2MbisP",inhibition
same,inhibition of differentiation of 3T3-L1 cells into mature adipocytes (Oil-Red-O staining),3T3-L1 cells; listed as (20S)2-MbisP,nearly as potent as the native hormone
same,inhibition of differentiation of 3T3-L1 cells into mature adipocytes (Oil-Red-O staining),3T3-L1 cells; listed as (20S)2M-bisP,inhibition
same,inhibition of differentiation of 3T3-L1 cells into mature adipocytes (Oil-Red-O staining),3T3-L1 cells; listed as (20S)2MbisP,inhibition
same,inhibition of differentiation of MDI-treated 3T3-L1 cells (oil-red-O staining),3T3-L1 cells; tested at 1×10^−8.5 M,active
